Data taken from article PMC7170889, “Synthesis and evaluation of designed PKC modulators for enhanced cancer immunotherapy” (Nature Communications, 2020).

Assays:
PKCδ-GFP fusion protein = target: T1, PKCδ-GFP fusion protein (Homo sapiens, UniProt Q05655); experiment: PKCδ-GFP translocation assay in living CHO-k1 cells (confocal microscopy); type: cell-based, Chinese hamster; settings: for Emax at 1 µM: CHO-K1, 1000 nM compound; for minimum effective concentration required to induce translocation of PKC-GFP to the membrane: tested at 200 and 1000 nM
T1 construct: expressed in transfected cells; host or cells: CHO-k1 (Chinese hamster ovary, ATCC)
T1 sequence (Q05655 whole entry, the tested form may be a part): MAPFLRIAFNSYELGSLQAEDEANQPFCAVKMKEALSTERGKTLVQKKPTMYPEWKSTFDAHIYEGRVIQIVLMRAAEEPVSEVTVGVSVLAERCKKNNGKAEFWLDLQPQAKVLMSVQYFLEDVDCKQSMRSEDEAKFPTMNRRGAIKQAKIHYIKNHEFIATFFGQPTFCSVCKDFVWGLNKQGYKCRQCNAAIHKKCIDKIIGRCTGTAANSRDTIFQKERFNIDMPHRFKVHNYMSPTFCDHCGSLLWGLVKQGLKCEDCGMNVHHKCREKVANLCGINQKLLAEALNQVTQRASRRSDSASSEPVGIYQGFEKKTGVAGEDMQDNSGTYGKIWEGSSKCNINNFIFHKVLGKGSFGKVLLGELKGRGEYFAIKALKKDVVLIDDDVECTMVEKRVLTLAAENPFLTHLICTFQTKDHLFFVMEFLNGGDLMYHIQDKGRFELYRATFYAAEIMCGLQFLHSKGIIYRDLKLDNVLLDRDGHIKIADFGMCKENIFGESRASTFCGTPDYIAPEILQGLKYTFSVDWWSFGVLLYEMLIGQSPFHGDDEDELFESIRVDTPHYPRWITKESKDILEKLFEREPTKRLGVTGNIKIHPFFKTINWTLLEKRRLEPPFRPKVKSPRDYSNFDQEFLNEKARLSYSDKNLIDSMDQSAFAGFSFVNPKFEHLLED
Experimental: (§1) With a panel of compounds bearing diverse functionality at C13, we began to explore how these modifications affect PKC binding and biological function. Because an obvious prerequisite for PKC pathway involvement is binding to PKC, compounds were initially evaluated for PKC affinity in a cell-free competitive binding assay with tritiated phorbol dibutyrate ([^3H]-PDBu). Assays were performed with representative members of both the conventional (PKCα) and novel (PKCδ) PKC families. Subsequently, compounds were assayed for PKC isoform translocation in real time in living cells using an optical assay. Translocation to the plasma membrane is the hallmark of PKC activation[18],[57],[60] and therefore monitoring the subcellular localization of a PKCδ-GFP fusion protein via confocal microscopy offers a convenient method for determining whether a compound enters a cell and engages its PKC isoform target. Finally and of clinical significance, we also determined the effect of compounds on CD22 surface expression in vitro in NALM6 cells, an ALL cell line previously studied in connection with CD22-targeted CAR T cell therapy, and two additional lymphoma cell lines[11],[31],[65].
Scale bar represents 25 μm. Experiments performed in n = 3 biological replicates. b–d Cytosolic fluorescence normalized to t = 0 (time immediately prior to addition of compound to media) and plotted against time. Error bars excluded for clarity (data presented as the mean of n = 3 biological replicates). Individual curves with error bars included in Supplementary Information.
PKCδ-GFP Translocation Assay Protocol
Chinese hamster ovary factor K1 (CHO-k1, ATCC) cells were cultured in F-12 Kaighn’s media (Hyclone, 10% fetal bovine serum, 1% penicillin/streptomycin added, reffered to as F-12 +/+ below) at 37 ° C in an incubator (5% CO2). Cell cultures were maintained by splitting cells 1:3 when they reached ~75-100% confluence (every 2-3 days) as follows:
(Gibco) was used to remove the cells from the culture flask (T75, Falcon). 1 mL of the cell suspension was then added to 9 mL of fresh F-12 +/+ and the sample was sub-cultured until reaching confluence (~2-3 days).
Cells were counted using a Countess II Automated Cell Counter (Fisher). The cell suspension was diluted to 240,000 cells/mL with fresh F-12 +/+ and 2.5 mL of this diluted stock was added to one well in a 6-well plate. The cells were then cultured for 24 hours.
Cells were transfected with Lipofectamine 2000 reagent (Invitrogen) or DA 13:11 at a 10:1 charge […]
F-12 +/+ was aspirated and cells were washed with F-12 -/-. 2 mL of fresh F-12 -/- was then added to each well, taking care not to disturb adherent cells. For each well of CHO-k1 cells, 12.5 µL Lipofectamine 2000 reagent (Invitrogen) was added to 250 µL Opti-MEM reduced serum media (Invitrogen) in a polypropylene tube and incubated for 20 minutes at RT. Meanwhile, for each well, 4 µg of PKCδ-GFP pDNA and 250 µL Opti-MEM reduced serum media was added to a separate polypropylene tube. 250 µL of the Lipofectamine 2000 suspension was added to the DNA suspension and the solution incubated for 30 minutes at RT. 500 µL of the Lipofectamine/DNA suspension was added to the respective wells of the 6-well plate. The cells were then incubated at 37 ° C (5% CO2) for ~24 hrs.
F-12 +/+ was aspirated and cells were washed with F-12 -/-. 2.4 mL of fresh F-12 -/- was then added to each well, taking care not to disturb adherent cells. A 4 µg aliquot of PKCδ-GFP pDNA was added to PBS (pH 5.5, final volume 100 µL). 5.6 µL of DA 13:11 (2 mM stock in DMSO) was then added to the DNA solution, and the mixture was gently mixed (by flicking) for 20 seconds, at which point it was added directly to the respective wells of the 6-well plate.

PKC = PKC competitive binding assay, isoform not specified; design: species or system human
Experimental: as §1
PKC Binding Assay Protocol […]
competition with 3H-phorbol-12,13-dibutyrate (3H-PDBu) as described below. This procedure entails a glass-fiber filtration method to determine bound radioligand.
Preparation of PKC binding assay buffer
To a 50 mL polypropylene tube was added Tris-HCl (pH 7.4, 1 M, 1 mL), KCl (1 M, 2 mL), CaCl2 (0.1 M, 30 μL), and bovine serum albumin (BSA, 40 mg, Sigma-Aldrich). This mixture was diluted to 20 mL with deionized H2O and mixed gently. The buffer was stored on ice until use. The final […]
Supplementary Table1. PKC binding assay buffer composition.
Preparation of phosphatidylserine (PS) vesicles
For every two assays, 3.5 mg phosphatidylserine (Avanti Polar Lipids, porcine, 25 mg/mL CHCl3 solution) was concentrated by removing chloroform under a stream of nitrogen followed by reduced pressure. The solid PS was suspended as vesicles in freshly prepared PKC binding assay buffer (3.5 mL) by sonicating six times for 30 sec, with a 30 sec rest between sonications (Branson Sonifier 250, power = 2, 50% duty cycle). The resulting milky cloudy mixture (1 mg/mL) was stored […]
Preparation of PKC isoform solution
Assay PKC was prepared by dissolving a 4 μg aliquot of the indicated recombinant human PKC isoform (Invitrogen) into 11.6 mL of PKC binding assay buffer (this amount is sufficient for two assays). The diluted PKC was stored on ice for immediate use.
Preparation of 3H-PDBu solution
3H-PDBu (American Radiolabeled Chemicals, Inc.; 1 mCi/mL acetone solution; specific activity: […]) was diluted 10-fold with DMSO. The resulting 500 nM stock solution was further diluted with DMSO to 30 nM.
Preparation of analog compound dilutions
Compound dilutions were prepared by serially diluting from a chosen "high" concentration by factors of 3 or 4. For each analog compound, seven concentrations were used to define the […]
To a polypropylene tube was added 3.3 mL of 1 mg/mL PS vesicles solution, 11 mL of PKC isoform solution, and 1.1 mL of 30 nM 3H-PDBu solution were added. The resulting solution was vortexed to mix and stored on ice.
PKC binding assay protocol
- Glass-fiber filters (Whatman GF/B) were prepared by soaking them in a solution of […]

[1] = CHO-k1 cells, n = 3, read-out: % Translocation (maximum translocation of PKCδ-GFP to the plasma membrane)

CCCCCC#CC(=O)O[C@H]1/C(=C/C(=O)OC)C[C@H]2C[C@H]([C@@H](C)O)OC(=O)C[C@H](O)C[C@@H]3C[C@H](OC(C)=O)C(C)(C)[C@](O)(C[C@@H]4C[C@@](O)(CO)C[C@H](/C=C/C(C)(C)[C@]1(O)O2)O4)O3 [SUW203]
% Translocation (maximum translocation of PKCδ-GFP to the plasma membrane) (PKCδ-GFP fusion protein; 1000 nM compound, CHO-k1 cells, n = 3): 50%
Emax at 1 µM (PKCδ-GFP fusion protein; [1]): ~50%
minimum effective concentration required to induce translocation of PKC-GFP to the membrane (PKCδ-GFP fusion protein; CHO-k1 cells): 1000 nM
PKC binding affinity in words (PKC; conventional and novel PKC isoforms): single-digit nanomolar

CCC/C=C/C=C/C(=O)O[C@H]1/C(=C/C(=O)OC)C[C@H]2C[C@H]([C@@H](C)O)OC(=O)C[C@H](O)C[C@@H]3C[C@H](OC(C)=O)C(C)(C)[C@](O)(C[C@@H]4C[C@H](OC(C)=O)C[C@H](/C=C/C(C)(C)[C@]1(O)O2)O4)O3 [SUW206]
Emax at 0.2 µM (PKCδ-GFP fusion protein; CHO-K1, 200 nM compound, CHO-k1 cells, n = 3, read-out: % Translocation (maximum translocation of PKCδ-GFP to the plasma membrane)): 60%
minimum effective concentration required to induce translocation of PKC-GFP to the membrane (PKCδ-GFP fusion protein; CHO-k1 cells): 200 nM

CCCC=CC=CC(=O)OC1C(=CC(=O)OC)CC2CC(C(C)O)OC(=O)CC(O)CC3CC(OC(C)=O)C(C)(C)C(O)(CC4CC(OC(=O)CCC(=O)O)CC(C=CC(C)(C)C1(O)O2)O4)O3 (stereo not shown) [SUW211]
Emax at 1 µM (PKCδ-GFP fusion protein; [1]): 20%
minimum effective concentration required to induce translocation of PKC-GFP to the membrane (PKCδ-GFP fusion protein; CHO-k1 cells): 1000 nM
sustained translocation of PKC (PKCδ-GFP fusion protein; at up to 1000 nM): did not achieve sustained translocation of PKC
decrease in affinity to PKC (PKC; charged substituents at C13, Table 1 data): 20-100 fold
